Test results as given in publication PMC10266789 (The Journal of Clinical Investigation, 2023).
Like-named read-outs stand apart in the source and are kept apart here.

Legend:
[1] = test system: HCMV TB40/E-mCherry-UL99eGFP; assay: HCMV virus yield at 72 hpi by TCID50 (3 IU/cell); type: cell-based, human cytomegalovirus; conditions: Figure 8C
[2] = test system: HCMV TB40/E-mCherry-UL99eGFP; conditions: Human betaherpesvirus 5, read-out: HCMV virus yield IC50
[3] = Host cell cytotoxicity, Calu3; type: cell-based; conditions: Calu3 cells; human Calu3; SARS-CoV-2 assay
[4] = test system: acetylated α-tubulin in HepG2 cells; assay: Western blot of acetylated α-tubulin in HepG2 cells; type: cell-based, human; conditions: 24 hours, plus 1 µM trichostatin A
Method: Supplemental Figure 1. […] (A) HepG2 cells were treated with FLS- […]
determined by western blot. Total a-tubulin was monitored as a control. (B) MDA-MB-231 cells or (C) MRC-5 fibroblasts were treated with drug for 72h and c-Myc was monitored by western blot with b-actin as a control. Western blots are representative of three independent experiments.
(1 picture or pasted object on this page, not shown here)

HCMV TB40/E [5] = assay: Human lung-only mouse model of HCMV infection; type: in vivo, lung-only mice (NSG); conditions: day 17; TCID50; FLS-359 50 mg/kg p.o. b.i.d.; ganciclovir 100 mg/kg i.p. daily; P < 0.04
[6] = test system: Zika virus (strain DAK41525); conditions: Zika/human HFF
[7] = test system: Influenza A (strain A/California/07/2009)
HCMV TB40/E [8] = assay: Mouse gelfoam-fibroblast model of HCMV infection; type: in vivo, CIEA NOG mice; conditions: day 11; TCID50; FLS-359 50 mg/kg p.o. b.i.d.; valganciclovir 50 mg/kg p.o. daily; P < 0.03
[9] = test system: Betacoronavirus 1 (strain OC43); conditions: HCoV-OC43/human MRC-5
recombinant human SIRT2 = target: T1, recombinant human SIRT2 (Homo sapiens, UniProt Q8IXJ6); assay: SIRT2 thermal stability (thermal shift) assay; type: binding
T1 sequence (Q8IXJ6 39-352 limits assumed): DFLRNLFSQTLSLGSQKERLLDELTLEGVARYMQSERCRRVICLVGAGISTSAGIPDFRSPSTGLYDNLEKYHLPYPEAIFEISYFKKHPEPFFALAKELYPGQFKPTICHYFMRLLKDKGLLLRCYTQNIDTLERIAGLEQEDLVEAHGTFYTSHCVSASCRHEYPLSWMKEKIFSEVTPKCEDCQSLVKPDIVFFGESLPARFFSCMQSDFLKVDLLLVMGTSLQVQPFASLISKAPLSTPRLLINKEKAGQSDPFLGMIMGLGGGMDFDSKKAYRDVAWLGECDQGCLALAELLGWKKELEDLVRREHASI
Method: SIRT2 underwent thermal denaturation with a midpoint transition temperature (Tm) of approximately 48°C.
Thermal melt data were collected using custom instrumentation (Fluorescence Innovations), with either 405 nm or 532 nm laser excitation and fluorescence lifetime emission to measure total well fluorescence and fluorescence lifetime as a function of temperature. Data were treated as previously described ([37]) to determine the midpoint transition temperature, Tm.

[10] = test system: Epstein-Barr virus (EBV; strain Akata); assay: microbe, parasite or virus in culture; conditions: human gammaherpesvirus 4, Akata, read-out: IC50, Epstein-Barr
[11] = test system: Hepatitis B virus (genotype D, subtype ayw); assay: microbe, parasite or virus in culture; conditions: Hepatocyte, read-out: IC50, Hepatitis B
[12] = test system: HCMV TB40/E-mCherry-UL99eGFP; assay: HCMV delayed treatment protocol, infected cell area in MRC-5; conditions: for IC50: Human betaherpesvirus 5, MRC5, 120 h, 5 days of treatment
[13] = Host cell cytotoxicity, Akata; type: cell-based; conditions: Akata cells (Burkitt lymphoma cell line); human Akata; Epstein-Barr assay
Method: The Akata Burkitt lymphoma cell line is permissive for EBV lytic reactivation through activation of the B cell receptor ([52]). As expected, 24 hours after receptor engagement with anti-IgG, 30% of Akata cells induced surface expression of the late EBV gene gp350, which serves as a proxy for cells that are replicating viral DNA and forming new virions (Figure 3A).

[14] = Host cell cytotoxicity, HFF; conditions: human, HFF cells
[15] = test system: SARS-CoV-2 (strain USA-WA1/2020); conditions: SARS-CoV-2/human Calu3
[16] = test system: SARS-CoV-2 (strain USA-WA1/2020); assay: microbe, parasite or virus in culture; conditions: Severe acute respiratory syndrome coronavirus 2, Calu-3, in Homo sapiens, read-out: IC50, SARS-CoV-2
[17] = test system: Hepatitis B virus (genotype D, subtype ayw); conditions: Hepatitis B/human PHH

Cc1cn(-c2ccc3c(c2)CN(c2ncc(Cc4ccc(-n5cccn5)cc4)s2)CC3)c(C)n1 [FLS-359, 7-(2,4-dimethyl-1H-imidazol-1-yl)-2-(5-{[4-(1H-pyrazol-1-yl)phenyl]methyl}-1,3-thiazol-2-yl)-1,2,3,4-tetrahydroisoquinoline]
production of infectious virus ([1]; 72 hpi, TCID50): reduced the production of infectious virus to below the limit of quantification | reduction in infectious virus ([1]; 72 hours): more than 1,000 fold | IC50 [2]: 560 nM | CC50 [3]: 15.8 µM | increase of acetylated α-tubulin level [4]: about 3 factor | production of infectious HCMV progeny in human lung implants (HCMV TB40/E [5]): significantly reduced the production of infectious HCMV progeny | SI CC50/IC50 [6]: 104.0 | SI CC50/IC50 ([7]; Influenza A/human dNHBE): >83.3 | IC90, Influenza A (column headed IC50, footnote C: IC90) ([7]; human dNHBE): 1.2^C μM | virus production in gelfoam implants (HCMV TB40/E [8]): significantly reduced virus production | SI CC50/IC50 [9]: >30.1 | increase of SIRT2 Tm (recombinant human SIRT2; 6.25 μM): 1.4 °C | increase of SIRT2 Tm (recombinant human SIRT2; 12.5 μM): 2.0 °C | IC50 [10]: 3.8 µM | IC50 [11]: 4.8 µM | IC50 ([12]; read-out: IC50, infected cell area, drug added at 0 hpi, 0.1 IU/cell): 900 nM | IC50 ([12]; read-out: IC50, infected cell area, drug added at 24 hpi): 600 nM | IC50 ([12]; read-out: IC50, infected cell area, drug added at 48 hpi): 800 nM | IC50 ([12]; read-out: IC50, infected cell area, drug added at 72 hpi): 900 nM | IC50 ([12]; read-out: IC50, infected cell area, drug added at 96 hpi): 900 nM | Maximum Fold-Reduction in infected cell area ([12]; drug added at 0 hpi): 11.6 | Maximum Fold-Reduction in infected cell area ([12]; drug added at 24 hpi): 33.4 | Maximum Fold-Reduction in infected cell area ([12]; drug added at 48 hpi): 21.2 | Maximum Fold-Reduction in infected cell area ([12]; drug added at 72 hpi): 17.6 | Maximum Fold-Reduction in infected cell area ([12]; drug added at 96 hpi): 21.8 | CC50 [13]: > 100 µM | CC50 [14]: 41.6 µM | SI CC50/IC50 [15]: 52.7 | IC50 [16]: 300 nM | SI CC50/IC50 [17]: >2.1
